pIC50: −log10 of the molar value. Active and inactive are the calls of the source. No cut-off for these calls is given here.
How the values were obtained:
[1] = test system: Panel NCI-60 (60 carcinoma cell lines); test: Growth inhibition human NCI60 cells after 48 hrs by sulforhodamine B assay; type: functional
HCT-116 [2] = test: Cytotoxicity against human HCT116 cells assessed as cell growth inhibition after 48 hrs by sulforhodamine B assay; type: functional, cell-based; conditions: HCT-116, 48 h
A-375 [3] = test: Cytotoxicity against human A375 cells assessed as cell growth inhibition after 48 hrs by sulforhodamine B assay; type: functional, cell-based; conditions: A-375, 48 h
A549 = test: Cytotoxicity against human A549 cells assessed as cell growth inhibition after 48 hrs by sulforhodamine B assay; type: functional, cell-based; conditions: A549, 48 h
HCT-116 [4] = test: Cytotoxicity against human HCT116 cells assessed as cell growth inhibition after 24 hrs by sulforhodamine B assay; type: functional, cell-based; conditions: HCT-116, 24 h
HCT-116 [5] = test: Antiproliferative activity against human HCT116 cells assessed as inhibition of colony formation at 0.66 to 2.63 uM after 14 days by crystal violet-staining based assay; type: functional, cell-based
HCT-116 [6] = test: Antitumor activity against human HCT116 cells xenografted in nude BALB/c mouse assessed as reduction in volume of growing subcutaneous tumor at 20 to 30 mg/kg, ip administered twice a week for 3 weeks; type: functional, organism-based
HCT-116 [7] = test: Antitumor activity against human HCT116 cells xenografted in nude BALB/c mouse assessed as suppression of excised tumor size at 20 mg/kg, ip administered twice a week for 3 weeks relative to control; type: functional
HCT-116 [8] = test: Antitumor activity against human HCT116 cells xenografted in nude BALB/c mouse assessed as suppression of excised tumor size at 30 mg/kg, ip administered twice a week for 3 weeks relative to control; type: functional
HCT-116 [9] = test: Antitumor activity against human HCT116 cells xenografted in nude BALB/c mouse assessed as tumor growth inhibition at 30 mg/kg, ip administered twice a week for 3 weeks relative to control; type: functional; conditions: HCT-116, ip, 504 h, read-out: TGI
HCT-116 [10] = test: Antitumor activity against human HCT116 cells xenografted in nude BALB/c mouse assessed as tumor growth inhibition at 20 mg/kg, ip administered twice a week for 3 weeks relative to control; type: functional; conditions: HCT-116, ip, 504 h, read-out: TGI
HCT-116 [11] = test: Antitumor activity against human HCT116 cells xenografted in nude BALB/c mouse assessed as tumor growth inhibition at 7.5 mg/kg, ip administered daily for 21 days relative to control; type: functional; conditions: HCT-116, ip, 504 h, read-out: TGI
[12] = Toxicity in nude BALB/c mouse xenografted with human HCT116 cells assessed as body weight loss at 20 to 30 mg/kg, ip administered twice a week for 3 weeks; type: organism-based; conditions: in vivo, 504 h
[13] = Toxicity in nude BALB/c mouse xenografted with human HCT116 cells assessed as body weight loss at 7.5 mg/kg, ip measured on day 10 and 11; type: organism-based; conditions: in vivo
HeLa [14] = test: Antitumor activity against human HeLa cells xenografted in nude BALB/c mouse assessed as tumor growth inhibition at 10 mg/kg, ip administered every other day for 21 days and observed for 6 days before sacrifice relative to control; type: functional; conditions: read-out: TGI
HeLa [15] = test: Antitumor activity against human HeLa cells xenografted in nude BALB/c mouse assessed as suppression of excised tumor size at 10 mg/kg, ip administered every other day for 21 days and observed for 6 days before sacrifice relative to control; type: functional
A-375 [16] = test: Antitumor activity against human A375 cells xenografted in nude BALB/c mouse assessed as tumor growth inhibition at 7.5 mg/kg, ip administered every other day for 23 days relative to control; type: functional; conditions: A-375, ip, 552 h, read-out: TGI
A-375 [17] = test: Antitumor activity against human A375 cells xenografted in nude BALB/c mouse assessed as suppression of tumor volume at 7.5 mg/kg, ip administered every other day for 23 days relative to control; type: functional; conditions: A-375, ip, 552 h, read-out: TGI
HCT-116 [18] = test: Growth inhibition human HCT116 cells after 72 hrs by MTS assay; type: functional, cell-based; conditions: HCT-116, 72 h
[19] = Ratio of IC50 for human HCT116/VM46 cells to IC50 for human HCT116 cells after 72 hrs by MTS assay; type: functional
[20] = Ratio of IC50 for human HCT116/VP35 cells to IC50 for human HCT116 cells after 72 hrs by MTS assay; type: functional
A2780 = test: Growth inhibition human A2780 cells after 72 hrs by MTS assay; type: functional, cell-based; conditions: A2780, 72 h
[21] = Ratio of IC50 for human A2780DDP cells to IC50 for human A2780 cells after 72 hrs by MTS assay; type: functional
[22] = Ratio of IC50 for human A2780/TAX cells to IC50 for human A2780 cells after 72 hrs by MTS assay; type: functional
HCT-116 [23] = test: Induction of apoptosis in human HCT116 cells assessed as viable cells at 1.32 uM after 48 hrs by annexin V/propidium iodide-double staining based flow cytometry (reference value: 88.3%); type: functional; conditions: HCT-116, 48 h, read-out: Activity
HCT-116 [24] = test: Induction of apoptosis in human HCT116 cells assessed as early apoptotic cells at 1.32 uM after 48 hrs by annexin V/propidium iodide-double staining based flow cytometry (reference value: 4.8%); type: functional
HCT-116 [25] = test: Induction of apoptosis in human HCT116 cells assessed as late apoptotic cells at 1.32 uM after 48 hrs by annexin V/propidium iodide-double staining based flow cytometry (reference value: 4.6%); type: functional
HCT-116 [26] = test: Induction of apoptosis in human HCT116 cells assessed as necrotic cells at 1.32 uM after 48 hrs by annexin V/propidium iodide-double staining based flow cytometry (reference value: […]); type: functional
HCT-116 [27] = test: Induction cell cycle arrest in human HCT116 cells assessed as accumulation in G1 phase at 1.6 uM after 12 hrs by propidium iodide-staining based flow cytometry; type: functional
HCT-116 [28] = test: Induction cell cycle arrest in human HCT116 cells assessed as reduction in accumulation in S phase at 1.6 uM after 12 hrs by propidium iodide-staining based flow cytometry; type: functional
HCT-116 [29] = test: Induction cell cycle arrest in human HCT116 cells assessed as accumulation in S phase at 1.6 uM after 24 hrs by propidium iodide-staining based flow cytometry; type: functional
HCT-116 [30] = test: Induction of cellular senescence in human HCT116 cells at 1.32 uM after 48 hrs by SA-beta-gal-staining based assay; type: functional, cell-based
HCT-116 [31] = test: Induction of cellular senescence in human HCT116 cells assessed as up-regulation of p21 protein expression at 0.1 to 0.4 ug/ml after 48 hrs by Western blot analysis; type: functional, cell-based
HCT-116 [32] = test: Induction of cellular senescence in human HCT116 cells assessed as up-regulation of p21 protein expression at 1.32 uM after 48 hrs in presence of p21 siRNA by SA-beta-gal-staining based Western blot analysis; type: functional, cell-based
HT-29 = test: Growth inhibition human HT-29 cells after 72 hrs by MTS assay; type: functional, cell-based
HCT-116 [33] = test: Antiproliferative activity against human HCT116 cells xenografted in BALB/c mouse at 10 mg/kg, administered every other day for 3 weeks by Ki67-staining based assay; type: functional, organism-based
[34] = Toxicity in BALB/c mouse assessed as mortality at 10 mg/kg, ip dosed daily for 28 days; type: organism-based; conditions: in vivo, 672 h
Mus musculus [35] = test: Induction of cellular senescence in BALB/c mouse xenografted with human HCT116 cells assessed as up-regulation of p21 protein expression at 10 mg/kg, administered every other day for 3 weeks by immunohistochemical analysis; type: functional, organism-based
Mus musculus [36] = test: Induction of cellular senescence in BALB/c mouse xenografted with human HCT116 cells assessed as up-regulation of p16 protein expression at 10 mg/kg, administered every other day for 3 weeks by immunohistochemical analysis; type: functional, organism-based
Mus musculus [37] = test: Effect on p27 protein expression in BALB/c mouse xenografted with human HCT116 cells at 10 mg/kg, administered every other day for 3 weeks by immunohistochemical analysis; type: functional, organism-based

CC(C)=CCC/C(C)=C/[C@H]1OC(=O)C[C@]12C[C@H](O)C=CC2=O
GI50 [1]: 30 to 4790 nM | pIC50 (HCT-116 [2]): 5.58 to 5.70 | pIC50 (A-375 [3]): 5.82 | pIC50 (A549): 5.61 | pIC50 (HCT-116 [4]): 5.44 | Activity (HCT-116 [5]): Active | Activity (HCT-116 [6]): Active | Activity (HCT-116 [7]): 72.7% | Activity (HCT-116 [8]): 68.7% | inhibition in vivo at 30 mg/kg (HCT-116 [9]): 72.7% | inhibition in vivo at 20 mg/kg (HCT-116 [10]): 68.7% | inhibition in vivo at 7.5 mg/kg (HCT-116 [11]): 29.9% | Activity [12]: 1 g | Activity [13]: Toxic | inhibition in vivo at 10 mg/kg (HeLa [14]): 30% | Activity (HeLa [15]): 31.5% | inhibition in vivo at 7.5 mg/kg (A-375 [16]): 12.8% | inhibition in vivo at 7.5 mg/kg (A-375 [17]): 20.6% | pIC50 (HCT-116 [18]): 5.82 | Ratio IC50 [19]: 0.9 | Ratio IC50 [20]: 1.1 | pIC50 (A2780): 5.91 | Ratio IC50 [21]: 1 | Ratio IC50 [22]: 0.8 | viability at 1.32 µM (HCT-116 [23]): 88.2% | Activity (HCT-116 [24]): 4.4% | Activity (HCT-116 [25]): 4.9% | Activity (HCT-116 [26]): 2.5% | Activity (HCT-116 [27]): Active | Activity (HCT-116 [28]): inactive | Activity (HCT-116 [29]): inactive | Activity (HCT-116 [30]): Active | Activity (HCT-116 [31]): Active | Activity (HCT-116 [32]): inactive | growth inhibition (GI) (HT-29): Active | Activity (HCT-116 [33]): Active | Activity [34]: Non-Toxic | Activity (Mus musculus [35]): Active | Activity (Mus musculus [36]): Active | Activity (Mus musculus [37]): inactive

Reference: ChEMBL document CHEMBL4316583, “In Vitro and in Vivo Antitumor Effects of Plant-Derived Miliusanes and Their Induction of Cellular Senescence” (J Med Chem, 2019)
